{"source": "paper PMC9675574", "about": "(JCI Insight, 2022)", "tested_on": "cerulein-induced pancreatitis in T7K24R mice", "assay": "Cerulein-induced pancreatitis in T7K24R mice", "type": "in vivo, mouse", "conditions": "single oral gavage 200 mg/kg; 15 treated mice", "description": "Pancreatitis was induced in T7K24R mice with 8 hourly intraperitoneal injections of the secretagogue peptide cerulein used in a dose of 50 μg/kg. Cerulein (catalog number C9026, MilliporeSigma) was dissolved in sterile normal saline at 10 μg/mL concentration. Mice were sacrificed 1, 24, 48, 72, or 96 hours from the first cerulein injection, as indicated, and the pancreas and blood were harvested. Details of histological analysis and measurement of plasma amylase (4 μL assayed) were reported previously ([29]–[31]).\nControl mice were given gavage of the vehicle solution (Captisol; see below) or regular chow.\nCaptisol (β-cyclodextrin sulfobutyl ethers, sodium salts, lot number NC-04A-180185) was obtained from Cydex Pharmaceuticals (through Thermo Fisher Scientific) and was dissolved in sterile normal saline (3.5 g in 10 mL). […] The mixture was then compressed into pellets using the barrel of a 10 mL plastic syringe and a plunger. The prodrug-containing pellets were allowed to dry at 24°C for 2 days and stored at 4°C until use.", "data": [{"smiles": "[H]/N=C(/N)c1ccc(NCc2nc3cc(C(=O)N(CCC(=O)O)c4ccccn4)ccc3n2C)cc1", "note": "[dabigatran]", "values": [{"measurement": "share of mice with limited efficacy (less than 25% of normal acini preserved)", "value": 30, "unit": "%"}]}]}
